Measurements from patent EP2677026A1, “Keratinocyte minimal growth medium and use thereof in an in vitro method for identifying compounds capable of improving skin and hair physiology” (Merz Pharma GmbH & Co. KGaA, priority 2012, dated 2013).
Where two headings read alike, the source gives them in different places.

Columns and labels:
[1] = system: NHEK (normal human epidermal keratinocytes); assay: Minimal growth assay: metabolic activity by resazurin assay of NHEK cultivated in minimal growth medium (MGM) plus test compound; type: cell-based; settings: for metabolic activity/cell number compared to the MGM control: highest value of the dose-dependent increase; for dose-depending increase of metabolic activity/cell number compared to the MGM control: 48 h and 72 h, increasing concentrations in MGM; for activity at 100 µM: 100 µm test compound
Experimental: Metabolic activity was measured by a resazurin assay. In this assay, non-fluorescent resazurin is reduced to fluorescent resorufin in viable cells only. The resulting signal is proportional to the number of cells present and, thus, is an indirect measure of cell number. The assay was carried out by diluting a resazurin (Sigma) stock solution (0,1 mg/ml in PBS) in the respective culture medium at a ratio of 1:11. The resazurin conversion to the fluorescent resorufin by metabolically active cells was recorded at 560Ex/590Em nm using a Synergy™ H4 plate reader (BioTek Instruments). Mean values of relative fluorescence/luminescence units (RFU/RLU) and standard deviation of replicates were analysed by Gene5 software. […] Statistical significance was assessed by comparing mean (+/-SD) values with Student's t-test for independent groups. NHEK were seeded at 30.000 cells/cm^2 into 48-well flat bottom tissue culture plates and cultured in normal keratinocyte growth medium ("GM") at 37°C and 5% CO2. After 12 to 15 h (typically over night) the media was exchanged to MGM with different concentrations of test compound. Controls receive MGM without compounds. Test compounds 1 to 4 (1: […] Ca^2+-pantothenate; 4: folic acid) were prepared according to Table 1 to yield respective stock solutions. The stock solutions were further diluted in minimal growth media (MGM) to obtain different test compound concentrations. […] The negative control wells contained media only plus the respective solvent. Table 1. Test compound and control solutions […] The test compounds were dissolved in DMSO, diluted into MGM and added to the cells. 4 to 6 replicates/concentration were tested. […] Metabolic activity after 48 h (see FIG. 4) and 72 h after incubation (see FIG. 5) was determined by the resazurin assay, and proliferation after 48 h and 72 h after incubation was measured using the CyQuant® Direct Cell Proliferation Assay kit (data not shown).

[2] = system: NHEK (normal human epidermal keratinocytes); assay: Minimal growth assay: proliferation by DNA amount (CyQuant Direct Cell Proliferation Assay kit) of NHEK in MGM plus test compounds; type: cell-based; settings: NHEK in MGM plus single compound or combination; MGM control set 100%
Experimental: Alternatively, cell number was directly assessed by measuring the amount of DNA using the CyQuant® Direct Cell Proliferation Assay kit (Invitrogen). In brief, the two CyQuant® kit solutions were mixed and added to the respective culture medium as described by the supplier. The fluorescence of the DNA intercalating CyQuant® Dye, representing the amount of cells, was recorded at 480Ex/535Em nm using a Synergy™ H4 plate reader (BioTek Instruments). Increase of the number of cells is used as indirect indicator of cell proliferation.
Mean values of relative fluorescence/luminescence units (RFU/RLU) and standard deviation of replicates were analysed by Gene5 software. For a better estimation of test compound's potential metabolic activity and proliferation measured in MGM were set as 100%. Statistical significance was assessed by comparing mean (+/-SD) values with Student's t-test for independent groups.
For measurements of metabolic activity and proliferation, NHEK were seeded at 30,000 cells/cm^2 into a 48-well microtiter flat bottom plate. After over night incubation growth medium 2 was replaced by BM, MGM, and MGM plus test compounds. The test compounds were dissolved in DMSO, diluted into MGM and added to the cells. 4 to 6 replicates/concentration were tested. […]

[3] = after 48 h, MGM control set 100%
[4] = after 72 h, MGM control set 100%
[5] = Homo sapiens, NHEK, after 72 h, MGM control set 100%, read-out: metabolic activity compared to the MGM control

Row | Structure (SMILES) | metabolic activity/cell number compared to the MGM control [1, 3] | metabolic activity/cell number compared to the MGM control [1, 4] | proliferation (DNA amount) compared to the MGM control [2] [%] | dose-depending increase of metabolic activity/cell number compared to the MGM control [1] | activity at 100 µM ([1]; Homo sapiens, NHEK, after 48 h, MGM control set 100%, read-out: metabolic activity compared to the MGM control) [%] | activity at 100 µM [1, 5] [%] | activity at 5 µM ([1]; Homo sapiens, NHEK, 5 µm test compound, after 48 h, MGM control set 100%, read-out: metabolic activity compared to the MGM control) [%]
1 | N[C@@H](CSSC[C@H](N)C(=O)O)C(=O)O [L-cystine] | up to 265% | up to 419% | 282 | – | – | – | –
2 | Cc1ncc(C[n+]2csc(CCO)c2C)c(N)n1 [Thiamin, thiamine] | up to 138% | up to 163% | – | – | – | – | –
3 | Nc1nc2ncc(CNc3ccc(C(=O)N[C@@H](CCC(=O)O)C(=O)O)cc3)nc2c(=O)[nH]1 [folic acid] | – | – | – | did not demonstrate a dose-depending increase | 113 | 118 | –
4 | CC(C)(CO)[C@@H](O)C(=O)NCCC(=O)O [pantothenate, Ca^2+-pantothenate] | – | – | – | did not show a dose-depending increase | – | 110 | 111
